Consider eleven compounds from patent US20230295118A1 (EnhancedBio Inc., priority 2022, published 2023).

Common to all, as to assay type: cell-based
The target in one assay is T1, CDK4 (Homo sapiens, UniProt P11802).
T1 construct: endogenous in cells
The assay can be described thus: CDK4 degradation (DC50, Dmax).

Another assay deals with T2, CDK6 (Homo sapiens, UniProt Q00534).
T2 construct: endogenous in cells
The assay can be described thus: CDK6 degradation (DC50, Dmax).

The test system of assay [1] is mantle cell lymphoma cell (Mino or JeKo-1). The assay can be described thus: Antiproliferative effect, MTS cell viability assay. Put shortly: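 Mino cells treated with compounds at 0, 0.0001, 0.001, 0.01, 0.1, 1 μM for 72 h; palbociclib and abemaciclib as positive controls. Viability by MTS, formazan absorbance read at 490 nm.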
Setting [2] is: 72 h, mantle cell lymphoma cell (Mino or JeKo-1), MTS assay, read-out: IC50 (anti-proliferation).
[3] abbreviates: mantle cell lymphoma cell (Mino or JeKo-1); MTS assay, 72 h; read-out: IC50 (anti-proliferation).

Molecules are shown by their SMILES. Where two headings read alike, the source gives them in different places. A value given as a limit tells only on which side of the number the result lay.

T2 sequence (Q00534 whole entry): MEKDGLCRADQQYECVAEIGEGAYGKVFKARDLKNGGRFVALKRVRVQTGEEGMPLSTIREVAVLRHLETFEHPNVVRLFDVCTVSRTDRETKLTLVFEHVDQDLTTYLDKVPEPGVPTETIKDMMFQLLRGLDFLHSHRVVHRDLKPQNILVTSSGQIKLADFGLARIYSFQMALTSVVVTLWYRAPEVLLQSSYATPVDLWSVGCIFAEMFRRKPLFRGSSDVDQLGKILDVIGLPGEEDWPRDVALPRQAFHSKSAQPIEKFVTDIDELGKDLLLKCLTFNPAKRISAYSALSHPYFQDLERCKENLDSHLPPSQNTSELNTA
T1 sequence (P11802 whole entry): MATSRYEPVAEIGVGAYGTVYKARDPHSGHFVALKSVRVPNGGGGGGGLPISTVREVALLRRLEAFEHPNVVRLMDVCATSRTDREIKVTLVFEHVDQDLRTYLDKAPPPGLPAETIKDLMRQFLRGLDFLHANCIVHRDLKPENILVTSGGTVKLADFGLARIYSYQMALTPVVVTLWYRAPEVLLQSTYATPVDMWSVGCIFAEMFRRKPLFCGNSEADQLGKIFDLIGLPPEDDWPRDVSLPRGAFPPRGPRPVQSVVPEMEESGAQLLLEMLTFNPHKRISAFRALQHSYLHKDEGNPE

Take `CC(=O)c1c(C)c2cnc(Nc3ccc(N4CCN(C5CCN(c6ccc(N7CCC(=O)NC7=O)cc6)CC5)CC4)cn3)nc2n(C2CCCC2)c1=O` [Compound 113, 1-(4-(4-(4-(6-((6-acetyl-8-cyclopentyl-5-methyl-7-oxo-7,8-dibydropyrido[2,3-d]pyrimidin-2-yl)amino)pyridin-3-yl)piperazin-1-yl)piperidin-1-yi)phenyl) dihydropyrimidine-2,4(1H,3H)-dione]: at CDK4, the DC50 was 50 to 200 nM and the Dmax was > 80%. Moreover, at CDK6, the DC50 is < 50 nM and the Dmax was > 80%. Besides, in assay [1] (setting [2]), the IC50 was < 50 nM.

`CC(=O)c1c(C)c2cnc(Nc3ccc(N4CCN(C(=O)C5CN(c6ccc(NC7CCC(=O)NC7=O)cc6)C5)CC4)cn3)nc2n(C2CCCC2)c1=O` (stereo not shown) [Compound 124, 3-((4-(3-(4-(6-((6-acetyl-8-cyclopentyl-5-methyl-7-oxo-7,8-dihydropyrido[2,3-d]pyrimidin-2-yl)amino)pyridin-3-yl)piperazine-1-carbonyl)azetidin-1-yl)phenyl)amino) piperidine-2,6-dione]: on CDK4, the DC50 is 50 to 200 nM and the Dmax was > 80%. Besides, on CDK6, the DC50 fell in the range of 50 to 200 nM and the Dmax was > 60%. Besides, the IC50 in assay [1] (setting [2]) is < 50 nM.

As to `CC(=O)c1c(C)c2cnc(Nc3ccc(N4CCN(C(=O)N5CCC(CCC6CCN(c7ccc8c(c7)CN(C7CCC(=O)NC7=O)C8=O)CC6)CC5)CC4)cn3)nc2n(C2CCCC2)c1=O` (stereo not shown) [Compound 26, 3-(5-(4-(2-(1-(4-(6-((6-acetyl-8-cyclopentyl-5-methyl-7-oxo-7,8-dihydropyrido[2,3-d]pyrimidin-2-yl)amino)pyridin-3-yl)piperazine-1-carbonyl)piperidin-4-yl)ethyl)piperidin-1-yl)-1-oxoisoindolin-2-yl)piperidine-2,6-dione], the DC50 at CDK4 and on CDK6 was > 200 nM in each case. Further, the Dmax at CDK4 and at CDK6 was > 50% throughout. Moreover, the IC50 in assay [1] (setting [2]) was in the range of 50 to 200 nM.

As to `CC(=O)c1c(C)c2cnc(Nc3ccc(N4CCN(CC5CN(c6cccc7c6C(=O)N(C6CCC(=O)NC6=O)C7=O)C5)CC4)cn3)nc2n(C2CCCC2)c1=O` (stereo not shown) [Compound 81, 4-(3-((4-(6-((6-acetyl-8-cyclopentyl-5-methyl-7-oxo-7,8-dihydropyrido[2,3-d]pyrimidin-2-yl)amino)pyridin-3-yl)piperazin-1-yl)methyl)azetidin-1-yl)-2-(2,6-dioxopiperidin-3-yl) isoindoline-1,3-dione], at CDK4, the DC50 is 50 to 200 nM and the Dmax was > 80%. In addition, on CDK6, the DC50 lay within 50 to 200 nM and the Dmax is > 80%. Further, the IC50 in assay [1] (setting [2]) is < 50 nM.

For the compound `CC(=O)c1c(C)c2cnc(Nc3ccc(N4CCN(C5CN(c6ccc(C(=O)NC7CCC(=O)NC7=O)cc6)C5)CC4)cn3)nc2n(C2CCCC2)c1=O` (stereo not shown) [Compound 102, 4-(3-(4-(6-((6-acetyl-8-cyclopentyl-5-methyl-7-oxo-7,8-dihydropyrido[2,3-d]pyrimidin-2-yl)amino)pyridin-3-yl)piperazin-1-yl)azetidin-1-yl)-N-(2,6-dioxopiperidin-3-yl)benzamide], at CDK4, the DC50 lay within 50 to 200 nM and the Dmax is > 80%. Also, at CDK6, the DC50 lay within 50 to 200 nM and the Dmax is > 60%. Also, the IC50 in assay [1] (setting [2]) is 50 to 200 nM.

`Cc1nc2c(F)cc(-c3nc(Nc4ccc(CN5CCN(CC6CCN(c7ccc(N8CCC(=O)NC8=O)cc7)CC6)CC5)cn4)ncc3F)cc2n1C(C)C` [Compound 108, 1-(4-(4-((4-((6-((5-fluoro-4-(4-fluoro-1-isopropyl-2-methyl-1H-benzo[d]imidazol-6-yl)pyrimidin-2-yl)amino)pyridin-3-yl)methyl)piperazin-1-yl)methyl)piperidin-1-yl)phenyl) dihydropyrimidine-2,4(1H,3H)-dione]: on CDK4, the DC50 was < 50 nM and the Dmax was > 80%. For the same compound, at CDK6, the DC50 is < 50 nM and the Dmax is > 80%. In addition, in assay [1] (setting [2]), the IC50 is < 50 nM.

For the compound `CC(=O)c1c(C)c2cnc(Nc3ccc(N4CCN(C(=O)N5CCC(CC6CCN(c7ccc8c(c7)CN(C7CCC(=O)NC7=O)C8=O)CC6)CC5)CC4)cn3)nc2n(C2CCCC2)c1=O` (stereo not shown) [Compound 14, 3-(5-(4-((1-(4-(6-((6-acetyl-8-cyclopentyl-5-methyl-7-oxo-7,8-dihydropyrido[2,3-d]pyrimidin-2-yl)amino)pyridin-3-yl)piperazine-1-carbonyl)piperidin-4-yl)methyl)piperidin-1-yl)-1-oxoisoindolin-2-yl)piperidine-2,6-dione], on CDK4, the DC50 is > 200 nM and the Dmax is > 50%. On CDK6, the DC50 is > 200 nM and the Dmax is > 60%. The IC50 in assay [1] (setting [2]) was in the range of 50 to 200 nM.

As for `Cc1nc2c(F)cc(-c3nc(Nc4ccc(CN5CCN(CC6CN(c7ccc(C(=O)NC8CCC(=O)NC8=O)cc7)C6)CC5)cn4)ncc3F)cc2n1C(C)C` (stereo not shown) [Compound 133, N-(2,6-dioxopiperidin-3-yl)-4-(3-((4-((6-((5-fluoro-4-4-fluoro-1-isopropyl-2-methyl-1H-benzo[d]imidazol-6-yl)pyrimidin-2-ylamino)pyridin-3-yl)methyl)piperazin-1-yl)methyl)azetidin-1-yl)benzamide], on CDK4, the DC50 was < 50 nM and the Dmax was > 80%. Besides, at CDK6, the 50% degradation concentration (DC50) was < 50 nM and the Dmax is > 80%. For the same compound, the IC50 in assay [1] (setting [2]) was < 50 nM.

As to `CC(=O)c1c(C)c2cnc(Nc3ccc(N4CCN(CCCN(C)c5ccc6c(c5)C(=O)N(C5CCC(=O)NC5=O)C6=O)CC4)cn3)nc2n(C2CCCC2)c1=O` (stereo not shown) [Compound 57, 5-((3-(4-(6-((6-acetyl-8-cyclopentyl-5-methyl-7-oxo-7,8-dihydropyrido[2,3-d]pyrimidin-2-yl)amino)pyridin-3-yl)piperazin-1-yl)propyl)(methyl)amino)-2-(2,6-dioxopiperidin-3-yl)isoindoline-1,3-dione], on CDK4, the DC50 lay within 50 to 200 nM and the Dmax is > 60%. For the same compound, at CDK6, the DC50 fell in the range of 50 to 200 nM and the Dmax is > 60%. Further, in assay [1] (setting [2]), the IC50 lay within 50 to 200 nM.

In the case of `Cc1nc2c(F)cc(-c3nc(Nc4ccc(CN5CCN(C6CCN(c7ccc(C(=O)NC8CCC(=O)NC8=O)cc7)CC6)CC5)cn4)ncc3F)cc2n1C(C)C` (stereo not shown) [Compound 167, N-(2,6-dioxopiperidin-3-yl)-4-(4-(4-((6-((5-fluoro-4-(4-fluoro-1-isopropyl-2-methyl-1H-benzo[d]imidazol-6-yl)pyrimidin-2-yl)amino)pyridin-3-yl)methyl)piperazin-1-yl)piperidin-1-yl)benzamide], at CDK4, the DC50 lay within 50 to 200 nM and the “Dmax CDK4” value is “B (B: >60%)”. On CDK6, the DC50 was 50 to 200 nM and the “Dmax CDK6” value is listed as “B (B: >60%)”. In addition, in assay [1] (setting [3]), the IC50 was 50 to 200 nM.

In the case of `Cc1nc2c(F)cc(-c3nc(Nc4ccc(CN5CCN(CCNc6cccc7c6CN(C6CCC(=O)NC6=O)C7=O)CC5)cn4)ncc3F)cc2n1C(C)C` (stereo not shown) [Compound 93], at CDK4, the DC50 was in the range of 50 to 200 nM and the “Dmax CDK4” value is “A (A: >80%)”. Also, on CDK6, the DC50 fell in the range of 50 to 200 nM and the “Dmax CDK6” value is reported as “A (A: >80%)”. Moreover, the IC50 in assay [1] (setting [3]) was < 50 nM.
